# Counter-ions that a name gives are not always drawn.
# How the values were obtained:
# [1] = target: full-length FLAG-tagged B-Raf(V600E) (Homo sapiens (Human), UniProt P15056, V600E); experiment: BRAF V600E enzyme assay (TR-FRET competitive displacement); format: binding; settings: averaged IC50; TR-FRET tracer displacement, 60 min
# How it was run: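 Displacement of 50 nM Tracer 1710 from 5 nM full-length N-terminally FLAG-tagged B-Raf(V600E), detected by TR-FRET with 0.5 nM Eu anti-FLAG antibody, in 25 mM HEPES pH 7.4, 10 mM MgCl2, 2% DMSO; 60 min at ~22 °C. Compounds 11-point, 3-fold from 10 μM; IC50 from 4-parameter fit at 50 POC.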
# [2] = system: A375 cells; experiment: Cellular phospho-ERK inhibition assay in A375 cells; format: cell-based; settings: Homo sapiens, A-375, A375 cells (head prints A357), 2 hours treatment, read-out: A357 cell IC50
# How it was run: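 A375 (DMEM) or H1755 (RPMI) cells in 10% FBS treated 2 h at 37 °C with 9-point series, 66 pM–10 μM, 0.25% DMSO. Phospho-ERK1/2 (Thr202/Tyr204) measured by In Cell Western, normalised to GAPDH and to DMSO and 10 μM binimetinib controls; IC50 by 4-parameter fit.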
# [3] = system: H1755 cells; experiment: Cellular phospho-ERK inhibition assay in H1755 cells; format: cell-based; settings: Homo sapiens, NCI-H1755, 2 hours treatment, read-out: H1755 Cell IC50
# Protocol: A375 and H1755 cells were obtained from the American Type Culture Collection (ATCC, Rockville, MD). A375 cells were maintained in DMEM growth medium containing 10% FBS. H1755 cells were maintained in RPMI growth medium containing 10% FBS.
# Cells were harvested according to standard protocols, counted and plated onto flat-bottom, 96-well tissue culture plates (Costar #3599) at 2.5×10^4 cells/well for A375 cells and 1.5×10^4 cells/well for H1755 cells in 100 μL/well of growth medium containing 10% FBS. After an overnight incubation at 37° C. with 5% CO2 cells were treated for 2 hours at 37° C., 5% CO2 with compounds prepared as a 9-point, 1:3.33 fold dilution series with final compound concentrations ranging from 66 pM-10 μM and a constant DMSO concentration of 0.25%. Control wells contained either 0.25% DMSO alone (uninhibited control) or 10 μM binimetinib (complete inhibition control). The levels of phosphorylated ERK are determined using an In Cell Western protocol: following compound incubation, growth medium was discarded, and cells were fixed with 0.4% formaldehyde in PBS for 20 minutes at room temperature. Cells were permeabilized with 100% methanol for 10 minutes at room temperature. Plates were washed with PBS containing 0.05% Tween-20 and blocked for 1 hour at room temperature with LI-COR Blocking Buffer (LI-COR Biosciences; Cat #927-40000). Plates were then incubated for 2 hours at room temperature with 50 μL of a 1:400 dilution of anti-phospho-ERK1/2 (Thr202/Tyr204) (Cell Signaling; Cat #9101) and a 1:1000 dilution of anti-GAPDH (Millipore; Cat #MAB374) in LI-COR blocking buffer containing 0.05% Tween-20. Plates were washed with PBS containing […] Tween-20 then incubated at room temperature for 1 hour with 50 μL of a 1:1000 dilution of anti-rabbit AlexaFluor 680 (Life Technologies; Cat #A21109) and a 1:1000 dilution of anti-mouse IRDye 800CW (LI-COR; Cat #926-32210) in LI-COR blocking buffer containing 0.05% Tween-20. Plates were analyzed by reading on an Odyssey CLx infrared scanner. For each well, the phospho-ERK signal was normalized to the GAPDH signal and converted to POC using the following equation:
# [formula] • Where: • Xmax Average Uninhibited Controls • Xmin Average Complete Inhibition Controls IC50 values were then calculated using a 4-parameter fit in XLfit software and are provided in Table A1.
# [4] = MDR1 LLC-PK1 and BCRP MDCKII permeability assay: permeability coefficient (Papp); format: in vitro ADME
# Description: (§1) Final organic concentration in the assay was 1%.
# [5] = target: P-gp (MDR1) (Homo sapiens (Human), UniProt P08183); experiment: MDR1 LLC-PK1 permeability assay: efflux ratio; format: in vitro ADME; settings: pig
# Description: as §1
# [6] = target: BCRP (Homo sapiens (Human), UniProt Q9UNQ0); experiment: BCRP MDCKII permeability assay: efflux ratio; format: in vitro ADME; settings: dog
# Chain of BCRP (Q9UNQ0 whole entry): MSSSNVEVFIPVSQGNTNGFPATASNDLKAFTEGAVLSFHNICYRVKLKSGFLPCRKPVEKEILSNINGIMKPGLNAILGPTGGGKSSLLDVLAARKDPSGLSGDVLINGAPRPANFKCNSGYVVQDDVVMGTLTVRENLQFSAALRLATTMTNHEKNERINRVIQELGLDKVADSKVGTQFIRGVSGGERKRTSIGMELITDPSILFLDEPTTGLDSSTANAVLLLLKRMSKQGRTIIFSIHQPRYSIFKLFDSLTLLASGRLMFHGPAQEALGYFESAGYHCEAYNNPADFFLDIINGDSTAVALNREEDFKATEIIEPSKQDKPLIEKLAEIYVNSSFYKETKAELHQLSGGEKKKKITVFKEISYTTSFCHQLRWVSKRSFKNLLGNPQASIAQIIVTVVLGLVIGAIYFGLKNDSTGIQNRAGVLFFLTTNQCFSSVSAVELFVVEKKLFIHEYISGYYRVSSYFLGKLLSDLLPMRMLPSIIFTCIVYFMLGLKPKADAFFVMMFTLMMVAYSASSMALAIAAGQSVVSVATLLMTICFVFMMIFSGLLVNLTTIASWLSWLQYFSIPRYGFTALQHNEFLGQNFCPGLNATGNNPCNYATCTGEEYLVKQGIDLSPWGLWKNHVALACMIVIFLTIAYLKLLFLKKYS
# Chain of P-gp (MDR1) (P08183 whole entry, species assumed): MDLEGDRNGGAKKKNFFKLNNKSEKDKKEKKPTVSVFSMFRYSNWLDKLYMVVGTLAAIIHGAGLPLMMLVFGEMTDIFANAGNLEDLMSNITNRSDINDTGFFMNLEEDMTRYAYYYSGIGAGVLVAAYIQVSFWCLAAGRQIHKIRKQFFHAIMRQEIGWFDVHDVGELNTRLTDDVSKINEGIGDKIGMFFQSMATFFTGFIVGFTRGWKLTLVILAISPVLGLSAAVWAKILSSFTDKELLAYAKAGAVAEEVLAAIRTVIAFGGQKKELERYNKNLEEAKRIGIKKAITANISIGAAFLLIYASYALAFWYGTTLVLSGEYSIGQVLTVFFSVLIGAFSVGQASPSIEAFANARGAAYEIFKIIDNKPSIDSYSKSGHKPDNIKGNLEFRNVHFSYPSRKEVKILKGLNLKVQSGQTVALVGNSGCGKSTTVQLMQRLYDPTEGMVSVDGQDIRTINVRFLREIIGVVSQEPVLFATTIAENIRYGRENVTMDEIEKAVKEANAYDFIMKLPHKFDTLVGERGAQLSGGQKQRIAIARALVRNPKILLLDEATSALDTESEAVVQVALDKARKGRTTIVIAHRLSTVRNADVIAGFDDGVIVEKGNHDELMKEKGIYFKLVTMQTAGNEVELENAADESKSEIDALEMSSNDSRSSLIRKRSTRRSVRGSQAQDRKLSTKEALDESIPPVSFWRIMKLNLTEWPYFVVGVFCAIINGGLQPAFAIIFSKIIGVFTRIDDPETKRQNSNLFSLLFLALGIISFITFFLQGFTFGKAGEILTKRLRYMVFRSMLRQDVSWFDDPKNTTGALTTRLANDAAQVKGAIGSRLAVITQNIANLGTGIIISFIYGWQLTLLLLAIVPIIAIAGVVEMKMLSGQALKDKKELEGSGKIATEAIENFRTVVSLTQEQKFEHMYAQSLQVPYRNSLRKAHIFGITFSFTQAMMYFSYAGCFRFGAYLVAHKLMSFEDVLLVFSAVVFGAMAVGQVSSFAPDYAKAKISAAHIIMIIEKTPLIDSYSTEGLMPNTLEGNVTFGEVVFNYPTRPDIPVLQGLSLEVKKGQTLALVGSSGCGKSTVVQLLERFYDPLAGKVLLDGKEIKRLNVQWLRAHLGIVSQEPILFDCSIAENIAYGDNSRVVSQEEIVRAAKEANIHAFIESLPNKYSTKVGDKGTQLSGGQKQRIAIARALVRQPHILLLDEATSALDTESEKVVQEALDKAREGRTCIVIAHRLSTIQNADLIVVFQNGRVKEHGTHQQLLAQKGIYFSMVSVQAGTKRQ
# Chain of full-length FLAG-tagged B-Raf(V600E) (P15056 whole entry V600E): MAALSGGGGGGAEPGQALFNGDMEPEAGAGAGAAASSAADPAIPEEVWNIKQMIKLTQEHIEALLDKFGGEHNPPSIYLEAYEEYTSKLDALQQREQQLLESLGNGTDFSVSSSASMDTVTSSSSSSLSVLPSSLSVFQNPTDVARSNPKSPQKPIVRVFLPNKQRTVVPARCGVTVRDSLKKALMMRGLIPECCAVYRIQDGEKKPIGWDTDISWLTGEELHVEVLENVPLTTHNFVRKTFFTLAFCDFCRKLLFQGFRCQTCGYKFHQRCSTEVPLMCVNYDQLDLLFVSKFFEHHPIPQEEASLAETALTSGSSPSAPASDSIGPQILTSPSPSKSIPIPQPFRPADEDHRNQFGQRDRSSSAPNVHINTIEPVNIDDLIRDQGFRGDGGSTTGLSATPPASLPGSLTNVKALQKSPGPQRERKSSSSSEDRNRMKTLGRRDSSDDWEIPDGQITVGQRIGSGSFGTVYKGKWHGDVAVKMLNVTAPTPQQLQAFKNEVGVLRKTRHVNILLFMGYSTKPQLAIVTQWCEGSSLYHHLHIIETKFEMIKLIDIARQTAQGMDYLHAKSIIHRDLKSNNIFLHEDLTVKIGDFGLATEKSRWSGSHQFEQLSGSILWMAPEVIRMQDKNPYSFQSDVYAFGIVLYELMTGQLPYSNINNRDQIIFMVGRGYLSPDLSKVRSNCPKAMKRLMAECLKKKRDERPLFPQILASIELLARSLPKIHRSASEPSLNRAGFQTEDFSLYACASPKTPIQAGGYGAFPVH
IC50 [1],IC50 [2],IC50 [3],"Papp at 2 h, 1 µM [4]","efflux ratio at 2 h, 1 µM [5]","efflux ratio at 2 h, 1 µM [6]",SMILES
10 nM,12 nM,26 nM,23 ×10⁻⁶ cm/s,2.5,1.3,"CO[C@@H]1CCN(S(=O)(=O)Nc2ccc(F)c(Nc3ccc4ncn(C)c(=O)c4c3Br)c2Cl)C1 [Example 8, (R)-N-(3-((5-bromo-3-methyl-4-oxo-3,4-dihydroquinazolin-6-yl)amino)-2-chloro-4-fluorophenyl)-3-methoxypyrrolidine-1-sulfonamide trifluoroacetate]"
8 nM,12 nM,84 nM,27 ×10⁻⁶ cm/s,1.6,0.7,"CO[C@@H]1CCN(S(=O)(=O)Nc2ccc(F)c(Oc3ccc4ncn(C)c(=O)c4c3C)c2Cl)C1 [Example 10, (R)-N-(2-chloro-3-((3,5-dimethyl-4-oxo-3,4-dihydroquinazolin-6-yl)oxy)-4-fluorophenyl)-3-methoxypyrrolidine-1-sulfonamide]"
7 nM,17 nM,75 nM,28 ×10⁻⁶ cm/s,1.3,0.8,"Cn1cnc2ccc(Nc3c(F)ccc(NS(=O)(=O)N4CCCC4)c3Cl)c(Br)c2c1=O [Example 11, N-(3-((5-bromo-3-methyl-4-oxo-3,4-dihydroquinazolin-6-yl)amino)-2-chloro-4-fluorophenyl)pyrrolidine-1-sulfonamide trifluoroacetate]"
3 nM,7 nM,33 nM,26 ×10⁻⁶ cm/s,5.6,13,"Cn1cnc2ccc(Nc3c(F)ccc(NS(=O)(=O)N4C[C@@H](F)[C@@H](F)C4)c3Cl)c(F)c2c1=O [Example 21, cis-N-(2-chloro-4-fluoro-3-((5-fluoro-3-methyl-4-oxo-3,4-dihydroquinazolin-6-yl)amino)phenyl)-3,4-difluoropyrrolidine-1-sulfonamide]"
3 nM,15 nM,52 nM,34 ×10⁻⁶ cm/s,2.7,5.6,"Cn1cnc2ccc(Nc3c(F)ccc(NS(=O)(=O)N4C[C@@H](F)[C@@H](F)C4)c3Cl)c(Cl)c2c1=O [Example 22, cis-N-(2-chloro-3-((5-chloro-3-methyl-4-oxo-3,4-dihydroquinazolin-6-yl)amino)-4-fluorophenyl)-3,4-difluoropyrrolidine-1-sulfonamide]"
3 nM,6 nM,29 nM,24 ×10⁻⁶ cm/s,3,17.6,"Cn1cnc2ccc(Nc3c(F)ccc(NS(=O)(=O)N4CCC(F)(F)C4)c3Cl)c(F)c2c1=O [Example 23, N-(2-chloro-4-fluoro-3-((5-fluoro-3-methyl-4-oxo-3,4-dihydroquinazolin-6-yl)amino)phenyl)-3,3-difluoropyrrolidine-1-sulfonamide]"
2 nM,8 nM,25 nM,27 ×10⁻⁶ cm/s,2.5,2.6,"Cn1cnc2ccc(Nc3c(F)ccc(NS(=O)(=O)N4CC[C@@H](F)C4)c3Cl)c(Br)c2c1=O [Example 24, (R)-N-(3-((5-bromo-3-methyl-4-oxo-3,4-dihydroquinazolin-6-yl)amino)-2-chloro-4-fluorophenyl)-3-fluoropyrrolidine-1-sulfonamide trifluoroacetate]"
2 nM,16 nM,94 nM,30 ×10⁻⁶ cm/s,1.6,2.4,"Cn1cnc2ccc(Nc3c(F)ccc(NS(=O)(=O)N4CCC(F)(F)C4)c3Cl)c(Cl)c2c1=O [Example 25, N-(2-chloro-3-((5-chloro-3-methyl-4-oxo-3,4-dihydroquinazolin-6-yl)amino)-4-fluorophenyl)-3,3-difluoropyrrolidine-1-sulfonamide trifluoroacetate]"
6 nM,4 nM,15 nM,31 ×10⁻⁶ cm/s,3.3,3.7,"Cn1cnc2ccc(Nc3c(F)ccc(NS(=O)(=O)N4CC[C@@H](OC(F)F)C4)c3Cl)c(F)c2c1=O [Example 26, (R)-N-(2-chloro-4-fluoro-3-((5-fluoro-3-methyl-4-oxo-3,4-dihydroquinazolin-6-yl)amino)phenyl)-3-(difluoromethoxy)pyrrolidine-1-sulfonamide]"
5 nM,5 nM,27 nM,39 ×10⁻⁶ cm/s,2.7,4.4,"Cn1cnc2ccc(Nc3c(F)ccc(NS(=O)(=O)N4CC[C@H](F)C4)c3Cl)c(F)c2c1=O [Example 27, (S)-N-(2-chloro-4-fluoro-3-((5-fluoro-3-methyl-4-oxo-3,4-dihydroquinazolin-6-yl)amino)phenyl)-3-fluoropyrrolidine-1-sulfonamide trifluoroacetate]"
4 nM,7 nM,38 nM,37 ×10⁻⁶ cm/s,2,1.7,"Cn1cnc2ccc(Nc3c(F)ccc(NS(=O)(=O)N4CC[C@H](F)C4)c3Cl)c(Cl)c2c1=O [Example 28, (S)-N-(2-chloro-3-((5-chloro-3-methyl-4-oxo-3,4-dihydroquinazolin-6-yl)amino)-4-fluorophenyl)-3-fluoropyrrolidine-1-sulfonamide]"
1 nM,9 nM,168 nM,31 ×10⁻⁶ cm/s,1.2,1,"Cn1cnc2ccc(Nc3c(F)c(F)cc(NS(=O)(=O)N4CCCC4)c3Cl)c(Cl)c2c1=O [Example 31, N-(2-chloro-3-((5-chloro-3-methyl-4-oxo-3,4-dihydroquinazolin-6-yl)amino)-4,5-difluorophenyl)pyrrolidine-1-sulfonamide trifluoroacetate]"
2 nM,5 nM,83 nM,32 ×10⁻⁶ cm/s,1.8,1,"CO[C@@H]1CCN(S(=O)(=O)Nc2cc(F)c(F)c(Nc3ccc4ncn(C)c(=O)c4c3Cl)c2Cl)C1 [Example 32, (R)-N-(2-chloro-3-((5-chloro-3-methyl-4-oxo-3,4-dihydroquinazolin-6-yl)amino)-4,5-difluorophenyl)-3-methoxypyrrolidine-1-sulfonamide trifluoroacetate]"
1 nM,8 nM,84 nM,25 ×10⁻⁶ cm/s,1.7,2.2,"Cn1cnc2ccc(Nc3c(F)c(F)cc(NS(=O)(=O)N4CC[C@@H](F)C4)c3Cl)c(Cl)c2c1=O [Example 33, (R)-N-(2-chloro-3-((5-chloro-3-methyl-4-oxo-3,4-dihydroquinazolin-6-yl)amino)-4,5-difluorophenyl)-3-fluoropyrrolidine-1-sulfonamide trifluoroacetate]"
4 nM,4 nM,54 nM,30 ×10⁻⁶ cm/s,2.9,2.6,"CO[C@@H]1CCN(S(=O)(=O)Nc2cc(F)c(F)c(Nc3ccc4ncn(C)c(=O)c4c3Cl)c2F)C1 [Example 34, (R)-N-(3-((5-chloro-3-methyl-4-oxo-3,4-dihydroquinazolin-6-yl)amino)-2,4,5-trifluorophenyl)-3-methoxypyrrolidine-1-sulfonamide]"

# From patent publication US12303509B2, “Compounds for the treatment of BRAF-associated diseases and disorders” (Pfizer Inc., priority 2020, dated 2025)
